Assay results from patent US11046716B2, “Beta-lactamase inhibitors” (priority 2015, dated 2021).
Where two headings read alike, the source gives them in different places.

Legend:
[1] = molecular target: T1, SHV-5 (Klebsiella pneumoniae, UniProt P0A3M1); test: β-lactamase enzyme inhibition assay, SHV-5 (cefotaxime substrate); assay type: biochemical
T1 construct: made in house; host or cells: E. coli BL21(DE3)
Method in brief: (§1)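 Native untagged β-lactamases were expressed in E. coli BL21(DE3), then purified by cation exchange and gel filtration. Enzyme was preincubated with inhibitor for 15 min at 37 °C before substrate was added. Imipenem (A300) served KPC-2 and cefotaxime (A260) served SHV-5. IC50 was taken from initial hydrolysis rates relative to no-inhibitor controls.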

[2] = molecular target: T2, KPC-2 (Klebsiella pneumoniae, UniProt Q9F663); test: β-lactamase enzyme inhibition assay, KPC-2 (imipenem substrate); assay type: biochemical
T2 construct: made in house; host or cells: E. coli BL21(DE3)
T2 sequence (Q9F663 25-293, looked up): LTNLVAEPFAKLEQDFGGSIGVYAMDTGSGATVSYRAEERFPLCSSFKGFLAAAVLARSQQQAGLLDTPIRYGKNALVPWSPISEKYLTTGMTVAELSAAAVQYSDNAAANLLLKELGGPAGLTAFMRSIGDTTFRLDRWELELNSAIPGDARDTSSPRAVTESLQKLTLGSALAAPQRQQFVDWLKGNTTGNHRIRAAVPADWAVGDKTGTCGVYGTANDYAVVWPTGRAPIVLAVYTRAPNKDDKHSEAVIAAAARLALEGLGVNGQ
Method in brief: as §1

[3] = molecular target: T3, VIM-2 (Escherichia coli, UniProt Q5U7L7); test: β-lactamase enzyme inhibition assay, VIM-2 (nitrocefin substrate); assay type: biochemical
T3 construct: made in house; host or cells: E. coli BL21(DE3)
Method in brief: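 Purified VIM-2 preincubated with inhibitor for 15 min at 37° C, then nitrocefin (100 μM final) added and absorbance at 486 nm followed for 10 min. Maximum hydrolysis rates compared with inhibitor-free controls; IC50 fitted from percent inhibition across inhibitor concentrations.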

[4] = molecular target: T4, AmpC (Enterobacter cloacae, UniProt P05364); test: β-lactamase enzyme inhibition assay, p99 AmpC (nitrocefin substrate); assay type: biochemical
T4 construct: made in house; host or cells: E. coli BL21(DE3)
T4 sequence (P05364 21-381): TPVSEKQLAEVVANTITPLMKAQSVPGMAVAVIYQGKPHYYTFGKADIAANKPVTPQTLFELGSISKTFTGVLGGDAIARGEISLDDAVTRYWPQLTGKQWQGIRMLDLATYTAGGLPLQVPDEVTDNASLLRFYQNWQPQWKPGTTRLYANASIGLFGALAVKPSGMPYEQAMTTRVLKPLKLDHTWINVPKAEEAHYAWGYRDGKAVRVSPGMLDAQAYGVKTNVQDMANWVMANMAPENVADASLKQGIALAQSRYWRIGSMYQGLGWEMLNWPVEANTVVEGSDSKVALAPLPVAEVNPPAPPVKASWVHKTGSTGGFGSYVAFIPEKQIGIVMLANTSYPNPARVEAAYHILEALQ
Method in brief: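 Native untagged β-lactamases were expressed in E. coli BL21(DE3), then purified by cation exchange and gel filtration. Enzyme was preincubated with inhibitor for 15 min at 37 °C before substrate was added. IC50 was taken from initial hydrolysis rates relative to no-inhibitor controls.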

[5] = molecular target: OXA-48 (UniProt Q6XEC0); test: β-lactamase enzyme inhibition assay, Class D oxacillinase; assay type: biochemical; conditions: read-out: OXA-48
[6] = system: E. coli expressing the Class A Extended Spectrum Beta-Lactamase (ESBL) CTX-M-15; test: Broth microdilution MIC assay with ceftazidime, E. coli CTX-M-15; assay type: cell-based; conditions: Fixed CAZ (ceftazidime) 4 μg/mL; E. coli ESBL4 CTX-M-15
Method in brief: (§2)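 Test compounds in 2-fold dilutions (16 to 0.125 μg/mL final) in CAMHB were combined with a β-lactam at a static 4 μg/ml final. Plates were inoculated per CLSI broth microdilution with the β-lactamase-producing strain (pre-grown 3-5 h) and incubated 16-20 h at 37° C. MIC of test compound was read visually.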

[7] = system: E. cloacae expressing the Class C P99; test: Broth microdilution MIC assay with ceftazidime, E. cloacae P99; assay type: cell-based; conditions: Fixed CAZ (ceftazidime) 4 μg/mL; E. cl. 144200 p99 AmpC
Method in brief: as §2

[8] = system: K. pneumoniae expressing the Class A carbapenemase KPC-2; test: Broth microdilution MIC assay with meropenem, K. pneumoniae KPC-2; assay type: cell-based; conditions: Fixed Mero (meropenem) 4 μg/mL; K. p. 156319 KPC-3
Method in brief: as §2

[9] = system: P. aeruginosa expressing the Class B carbapenemase VIM-2; test: Broth microdilution MIC assay with meropenem, P. aeruginosa VIM-2; assay type: cell-based; conditions: Fixed Mero (meropenem) 4 μg/mL; P. aerug. 2775 VIM-2
Method in brief: as §2

[10] = system: K. pneumoniae expressing the class A carbapenemase KPC-2 and the class B carbapenemase VIM-4; test: Broth microdilution MIC assay with meropenem, K. pneumoniae KPC-2 and VIM-4; assay type: cell-based; conditions: Fixed Mero (meropenem) 4 μg/mL; K. p. A-1797 KPC-2 VIM-4
Method in brief: as §2

[11] = system: K. pneumoniae producing the Class D carbapenemase OXA-48; test: Broth microdilution MIC assay with meropenem, K. pneumoniae OXA-48; assay type: cell-based; conditions: Fixed Mero (meropenem) 4 μg/mL; K. p. 11978 OXA-48
Method in brief: as §2

[12] = Class A, imipenem substrate, 300 nm, read-out: KPC-2
[13] = Class B, nitrocefin substrate, 486 nm, read-out: VIM-2

T1 sequence (P0A3M1 22-286): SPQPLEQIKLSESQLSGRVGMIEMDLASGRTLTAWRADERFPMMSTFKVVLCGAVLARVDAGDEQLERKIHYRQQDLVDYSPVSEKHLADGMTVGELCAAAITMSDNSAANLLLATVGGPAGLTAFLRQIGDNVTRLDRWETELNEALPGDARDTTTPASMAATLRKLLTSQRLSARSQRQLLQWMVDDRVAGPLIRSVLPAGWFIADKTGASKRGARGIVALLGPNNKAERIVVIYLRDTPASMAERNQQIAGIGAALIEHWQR

Row | SMILES | IC50 [1] [nM] | IC50 [2, 12] [nM] | IC50 [3, 13] [nM] | IC50 [4] [nM] | IC50 [5] [nM] | MIC (μg/mL) of Exemplary Compounds in presence of fixed β-lactams: E. coli ESBL4 CTX-M-15 [6] | MIC (μg/mL) of Exemplary Compounds in presence of fixed β-lactams: E. cl. 144200 p99 AmpC [7] | MIC (μg/mL) of Exemplary Compounds in presence of fixed β-lactams: K. p. 156319 KPC-3 [8] | MIC (μg/mL) of Exemplary Compounds in presence of fixed β-lactams: P. aerug. 2775 VIM-2 [9] | MIC (μg/mL) of Exemplary Compounds in presence of fixed β-lactams: K. p. A-1797 KPC-2 VIM-4 [10] | MIC (μg/mL) of Exemplary Compounds in presence of fixed β-lactams: K. p. 11978 OXA-48 [11] | IC50 [2] [nM] | IC50 [3] [nM]
1 | CC(C)NCCc1cn(CC(=O)N[C@H]2Cc3cccc(C(=O)O)c3OB2O)nn1 [Example 7, (R)-2-hydroxy-3-(2-(4-(2-(isopropylamino)ethyl)-1H-1,2,3-triazol-1-yl)acetamido)-3,4-dihydro-2H-benzo[e][1,2]oxaborinine-8-carboxylic acid] | 100 to 1000 | 1000 to 10000 | 1000 to 10000 | < 100 | 1000 to 10000 | C (C represents an MIC of <1 μg/mL) | C (C represents an MIC of <1 μg/mL) | C (C represents an MIC of <1 μg/mL) | C (C represents an MIC of <1 μg/mL) | B (B represents an MIC between 1 and 16 μg/mL inclusive) | B (B represents an MIC between 1 and 16 μg/mL inclusive) |  | 
2 | NC1CN(C(=O)c2cn(CC(=O)N[C@H]3Cc4cccc(C(=O)O)c4OB3O)nn2)C1 [Example 80, (R)-3-(2-(4-(3-aminoazetidine-1-carbonyl)-1H-1,2,3-triazol-1-yl)acetamido)-2-hydroxy-3,4-dihydro-2H-benzo[e][1,2]oxaborinine-8-carboxylic acid] | < 100 | < 100 | 100 to 1000 | < 100 | 100 to 1000 | C (C represents an MIC of <1 μg/mL) | C (C represents an MIC of <1 μg/mL) | B (B represents an MIC between 1 and 16 μg/mL inclusive) | C (C represents an MIC of <1 μg/mL) | B (B represents an MIC between 1 and 16 μg/mL inclusive) | B (B represents an MIC between 1 and 16 μg/mL inclusive) |  | 
3 | NCCn1cc(Cn2nnnc2CC(=O)N[C@H]2Cc3cccc(C(=O)O)c3OB2O)nn1 [Example 123, (R)-3-(2-(1-((1-(2-aminoethyl)-1H-1,2,3-triazol-4-yl)methyl)-1H-tetrazol-5-yl)acetamido)-2-hydroxy-3,4-dihydro-2H-benzo[e][1,2]oxaborinine-8-carboxylic acid] | < 100 |  |  | < 100 | 100 to 1000 | C (C represents an MIC of <1 μg/mL) | C (C represents an MIC of <1 μg/mL) | C (C represents an MIC of <1 μg/mL) | A (A represents an MIC>16 μg/mL) | B (B represents an MIC between 1 and 16 μg/mL inclusive) | B (B represents an MIC between 1 and 16 μg/mL inclusive) | 100 to 1000 | 1000 to 10000
4 | O=C(Cn1cc(C2CNC2)nn1)N[C@H]1Cc2cccc(C(=O)O)c2OB1O [Example 90, (R)-3-(2-(4-(azetidin-3-yl)-1H-1,2,3-triazol-1-yl)acetamido)-2-hydroxy-3,4-dihydro-2H-benzo[e][1,2]oxaborinine-8-carboxylic acid] | 100 to 1000 | < 100 | 100 to 1000 | < 100 | 1000 to 10000 | C (C represents an MIC of <1 μg/mL) | C (C represents an MIC of <1 μg/mL) | B (B represents an MIC between 1 and 16 μg/mL inclusive) | C (C represents an MIC of <1 μg/mL) | B (B represents an MIC between 1 and 16 μg/mL inclusive) | B (B represents an MIC between 1 and 16 μg/mL inclusive) |  | 
5 | NCc1ncn(CC(=O)N[C@H]2Cc3cccc(C(=O)O)c3OB2O)n1 [Example 125] | 100 to 1000 | < 100 | < 100 | < 100 | 1000 to 10000 | C (C represents an MIC of <1 μg/mL) | C (C represents an MIC of <1 μg/mL) | C (C represents an MIC of <1 μg/mL) | C (C represents an MIC of <1 μg/mL) | C (C represents an MIC of <1 μg/mL) | B (B represents an MIC between 1 and 16 μg/mL inclusive) |  | 
6 | NCCS(=O)(=O)NCc1cn(CC(=O)N[C@H]2Cc3cccc(C(=O)O)c3OB2O)nn1 [Example 69, (R)-3-(2-(4-(((2-aminoethyl)sulfonamido)methyl)-1H-1,2,3-triazol-1-yl)acetamido)-2-hydroxy-3,4-dihydro-2H-benzo[e][1,2]oxaborinine-8-carboxylic acid] | < 100 | < 100 | 100 to 1000 | < 100 | 1000 to 10000 | C (C represents an MIC of <1 μg/mL) | C (C represents an MIC of <1 μg/mL) | B (B represents an MIC between 1 and 16 μg/mL inclusive) | C (C represents an MIC of <1 μg/mL) | B (B represents an MIC between 1 and 16 μg/mL inclusive) | B (B represents an MIC between 1 and 16 μg/mL inclusive) |  | 
7 | NCc1cn(CC(=O)N[C@H]2Cc3cccc(C(=O)O)c3OB2O)nn1 [Example 2, (R)-3-(2-(4-(aminomethyl)-1H-1,2,3-triazol-1-yl)acetamido)-2-hydroxy-3,4-dihydro-2H-benzo[e][1,2]oxaborinine-8-carboxylic acid] | < 100 | < 100 | < 100 | < 100 | 100 to 1000 | C (C represents an MIC of <1 μg/mL) | C (C represents an MIC of <1 μg/mL) | C (C represents an MIC of <1 μg/mL) | C (C represents an MIC of <1 μg/mL) | C (C represents an MIC of <1 μg/mL) | B (B represents an MIC between 1 and 16 μg/mL inclusive) |  | 
8 | O=C(Cc1nnnn1CC1CCNCC1)N[C@H]1Cc2cccc(C(=O)O)c2OB1O [Example 98, (R)-2-hydroxy-3-(2-(1-(piperidin-4-ylmethyl)-1H-tetrazol-5-yl)acetamido)-3,4-dihydro-2H-benzo[e][1,2]oxaborinine-8-carboxylic acid] | < 100 | < 100 | < 100 | < 100 | 100 to 1000 | C (C represents an MIC of <1 μg/mL) | C (C represents an MIC of <1 μg/mL) | C (C represents an MIC of <1 μg/mL) | C (C represents an MIC of <1 μg/mL) | B (B represents an MIC between 1 and 16 μg/mL inclusive) | B (B represents an MIC between 1 and 16 μg/mL inclusive) |  | 
